Measurements as given in patent publication US10975037B2 (priority 2018, dated 2021).
Where two headings read alike, the source gives them in different places.

What was measured:
[1] = biological target: human RORγt ligand binding domain (RORγt LBD) (Homo sapiens (Human), UniProt P51449); test: RORγt ThermoFluor® assay (thermal shift binding)
In short: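 Thermal shift with 0.065 mg/mL RORγt LBD and 60 μM 1,8-ANS in 100 mM Hepes pH 7.0, 10 mM NaCl, 2.5 mM GSH, 0.002% Tween-20.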

full-length human RORγt = full-length human RORγt (Homo sapiens (Human), UniProt P51449); test: RORγt (full-length human) reporter assay, conditions A or B, HEK293T cells; type: cell-based; details: for inhibition at 6 µM: read-out: RORγt (FL) Reporter Assay A or B, % inhibition @ 6 μM; for IC50: RORγt (FL) Reporter Assay A or B, IC50, HEK293T cells; for inhibition at […]: 0.22 μM compound concentration (footnote *******); for inhibition at 2 µM: 2 μM compound concentration
full-length human RORγt, sequence (P51449 other isoform, or with tags, fused parts or gaps): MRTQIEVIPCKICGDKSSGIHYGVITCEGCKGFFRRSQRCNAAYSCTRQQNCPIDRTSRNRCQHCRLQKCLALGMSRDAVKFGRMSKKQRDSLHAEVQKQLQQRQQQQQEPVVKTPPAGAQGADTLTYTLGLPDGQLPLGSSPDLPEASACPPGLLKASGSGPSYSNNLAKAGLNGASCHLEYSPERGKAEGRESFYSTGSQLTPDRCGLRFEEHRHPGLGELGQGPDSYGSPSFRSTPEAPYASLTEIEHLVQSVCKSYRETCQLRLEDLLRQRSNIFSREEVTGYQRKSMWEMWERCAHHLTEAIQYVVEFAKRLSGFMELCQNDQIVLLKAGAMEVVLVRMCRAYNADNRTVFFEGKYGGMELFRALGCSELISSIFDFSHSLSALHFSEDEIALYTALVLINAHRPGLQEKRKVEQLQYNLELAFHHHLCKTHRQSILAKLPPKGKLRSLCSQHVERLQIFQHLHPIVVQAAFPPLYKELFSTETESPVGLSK
In short: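 Dual-luciferase read-out was taken after an overnight (16–20 h) compound exposure. Firefly data were scaled between DMSO-only and saturating reference compound, Renilla-normalized, then plotted against concentration for IC50.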

[2] = HEK-293T, 6 μM compound concentration
[3] = HEK-293T, read-out: RORγt (FL) Reporter Assay A or B, % inhibition
[4] = read-out: ThermoFluor® Assay, Kd

human RORγt ligand binding domain (RORγt LBD), sequence (P51449 other isoform, or with tags, fused parts or gaps): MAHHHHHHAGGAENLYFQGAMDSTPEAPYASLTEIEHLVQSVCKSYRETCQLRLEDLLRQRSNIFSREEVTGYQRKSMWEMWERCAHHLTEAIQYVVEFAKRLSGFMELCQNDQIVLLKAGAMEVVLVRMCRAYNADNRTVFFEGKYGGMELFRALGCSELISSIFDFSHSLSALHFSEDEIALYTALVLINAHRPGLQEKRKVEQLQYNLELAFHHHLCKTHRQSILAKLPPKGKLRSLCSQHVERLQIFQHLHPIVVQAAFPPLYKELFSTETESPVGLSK

SMILES	Kd ([1]; ThermoFluor® Assay, Kd) [nM]	inhibition at 6 µM (full-length human RORγt; [2]) [%]	IC50 (full-length human RORγt) [nM]	inhibition at […] (full-length human RORγt; [3]) [%]	Kd [1, 4] [nM]	inhibition at 2 µM (full-length human RORγt; [3]) [%]	inhibition at 0.67 µM (full-length human RORγt; HEK-293T, 0.67 μM compound concentration (footnote ****), read-out: RORγt (FL) Reporter Assay A or B, % inhibition) [%]	inhibition at 6 µM (full-length human RORγt; HEK-293T) [%]
CCn1nc(C(=O)NC[C@]2(O)CC[C@@H](S(C)(=O)=O)CC2)c(C#N)c1-c1ccc(CC(C)C(F)(F)F)cc1OC (stereo partly drawn) [Example 122, 4-Cyano-1-ethyl-N-(((1s,4s)-1-hydroxy-4-(methylsulfonyl)cyclohexyl)methyl)-5-(2-methoxy-4-(3,3,3-trifluoro-2-methylpropyl)phenyl)-1H-pyrazole-3-carboxamide]	–	104	150	–	27	–	–	–
CCn1nc(C(=O)NC[C@H]2CC[C@H](S(C)(=O)=O)CC2)c(C#N)c1-c1ccc(CC(C)C(F)(F)F)cc1OC (stereo partly drawn) [Example 123, 4-Cyano-1-ethyl-5-(2-methoxy-4-(3,3,3-trifluoro-2-methylpropyl)phenyl)-N-(((1r,4r)-4-(methylsulfonyl)cyclohexyl)methyl)-1H-pyrazole-3-carboxamide]	–	–	35	–	9.6	85	–	–
CCn1nc(C(=O)NC[C@]2(O)CC[C@@H](S(C)(=O)=O)CC2)c(C#N)c1-c1ccc(CCC(F)(F)F)cc1OC [Example 124, 4-Cyano-1-ethyl-N-(((1s,4s)-1-hydroxy-4-(methylsulfonyl)cyclohexyl)methyl)-5-(2-methoxy-4-(3,3,3-trifluoropropyl)phenyl)-1H-pyrazole-3-carboxamide]	–	83	770	–	170	–	–	–
CCn1nc(C(=O)NC[C@H]2CC[C@H](S(C)(=O)=O)CC2)c(C#N)c1-c1ccc(CCC(F)(F)F)cc1OC [Example 125, 4-Cyano-1-ethyl-5-(2-methoxy-4-(3,3,3-trifluoropropyl)phenyl)-N-(((1r,4r)-4-(methylsulfonyl)cyclohexyl)methyl)-1H-pyrazole-3-carboxamide]	–	–	230	–	44	–	–	85
CCn1nc(C(=O)NC[C@]2(O)CC[C@@H](S(C)(=O)=O)CC2)c(C#N)c1-c1ccc(CC(C)(C)C(F)(F)F)cc1OC [Example 126, 4-Cyano-1-ethyl-N-(((1s,4s)-1-hydroxy-4-(methylsulfonyl)cyclohexyl)methyl)-5-(2-methoxy-4-(3,3,3-trifluoro-2,2-dimethylpropyl)phenyl)-1H-pyrazole-3-carboxamide]	–	–	84	–	12	–	–	101
CCn1nc(C(=O)NC[C@H]2CC[C@H](S(C)(=O)=O)CC2)c(C#N)c1-c1ccc(CC(C)(C)C(F)(F)F)cc1OC [Example 127, 4-Cyano-1-ethyl-5-(2-methoxy-4-(3,3,3-trifluoro-2,2-dimethylpropyl)phenyl)-N-(((1r,4r)-4-(methylsulfonyl)cyclohexyl)methyl)-1H-pyrazole-3-carboxamide]	–	–	20	–	3.7	–	94	–
CCn1nc(C(=O)NCC2(N)CCC(S(C)(=O)=O)CC2)c(Cl)c1-c1ccc(CC(C)C(F)(F)F)cc1OC (stereo not drawn) [Example 128, N-((1-Amino-4-(methylsulfonyl)cyclohexyl)methyl)-4-chloro-1-ethyl-5-(2-methoxy-4-(3,3,3-trifluoro-2-methylpropyl)phenyl)-1H-pyrazole-3-carboxamide]	–	–	850	–	140	63	–	–
CCc1c(C(=O)NC[C@H]2CC[C@H](S(C)(=O)=O)CC2)nn(CC)c1-c1ccc(N[C@H](C)C(F)(F)F)cc1OC [Example 130, 1,4-Diethyl-5-(2-methoxy-4-(((R)-1,1,1-trifluoropropan-2-yl)amino)phenyl)-N-(((r,4R)-4-(methylsulfonyl)cyclohexyl)methyl)-1H-pyrazole-3-carboxamide]	–	–	61	–	9.9	100	–	–
CCn1nc(C(=O)NC[C@H]2CC[C@H](S(C)(=O)=O)CC2)c(C(C)C)c1-c1ccc(N[C@H](C)C(F)(F)F)cc1OC [Example 131, 1-Ethyl-4-isopropyl-5-(2-methoxy-4-(((R)-1,1,1-trifluoropropan-2-yl)amino)phenyl)-N-(((1r,4R)-4-(methylsulfonyl)cyclohexyl)methyl)-1H-pyrazole-3-carboxamide]	–	–	140	–	33	100	–	–

More lines, main results first:

Kd ([1]; ThermoFluor® Assay, Kd) [nM]	inhibition at 6 µM (full-length human RORγt; [2]) [%]	IC50 (full-length human RORγt) [nM]	inhibition at […] (full-length human RORγt; [3]) [%]	Kd [1, 4] [nM]	inhibition at 2 µM (full-length human RORγt; [3]) [%]	inhibition at 0.67 µM (full-length human RORγt; HEK-293T, 0.67 μM compound concentration (footnote ****), read-out: RORγt (FL) Reporter Assay A or B, % inhibition) [%]	SMILES	inhibition at 6 µM (full-length human RORγt; HEK-293T) [%]
1500	14	> 6000	–	–	–	–	CCn1nc(C(=O)NC[C@]2(C(=O)O)CC[C@@H](S(C)(=O)=O)CC2)c(Cl)c1-c1ccc(CC(C)(C)C(F)(F)F)cc1OC(F)F [Example 119, (1s*,4s*)-1-((4-Chloro-5-(2-(difluoromethoxy)-4-(3,3,3-trifluoro-2,2-dimethylpropyl)phenyl)-1-ethyl-1H-pyrazole-3-carboxamido)methyl)-4-(methylsulfonyl)cyclohexane-1-carboxylic Acid]	–
10	–	28	92	–	–	–	CCOC(=O)[C@]1(CNC(=O)c2nn(CC)c(-c3ccc(CC(C)(C)C(F)(F)F)cc3OC(F)F)c2Cl)CC[C@@H](S(C)(=O)=O)CC1 [Example 120, Ethyl (1r*,4r*)-1-((4-chloro-5-(2-(difluoromethoxy)-4-(3,3,3-trifluoro-2,2-dimethylpropyl)phenyl)-1-ethyl-1H-pyrazole-3-carboxamido)methyl)-4-(methylsulfonyl)cyclohexane-1-carboxylate]	–
43	106	830	–	–	–	–	CCn1nc(C(=O)NC[C@]2(C(=O)O)CC[C@H](S(C)(=O)=O)CC2)c(Cl)c1-c1ccc(CC(C)(C)C(F)(F)F)cc1OC(F)F [Example 121, (1r*,4r*)-1-((4-Chloro-5-(2-(difluoromethoxy)-4-(3,3,3-trifluoro-2,2-dimethylpropyl)phenyl)-1-ethyl-1H-pyrazole-3-carboxamido)methyl)-4-(methylsulfonyl)cyclohexane-1-carboxylic Acid]	–
0.2	–	4.6	107	–	–	–	CCn1nc(C(=O)NC[C@H]2CC[C@H](S(=O)(=O)CC)CC2)c(Cl)c1-c1ccc(CC(C)(C)C(F)(F)F)cc1OC(F)F [Example 133, 4-Chloro-5-(2-(difluoromethoxy)-4-(3,3,3-trifluoro-2,2-dimethylpropyl)phenyl)-1-ethyl-N-(((1r,4r)-4-(ethylsulfonyl)cyclohexyl)methyl)-1H-pyrazole-3-carboxamide]	–
–	–	1.3	102	0.2	–	–	CCn1nc(C(=O)NC[C@]2(C#N)CC[C@@H](S(C)(=O)=O)CC2)c(Cl)c1-c1ccc(CC(C)(C)C(F)(F)F)cc1OC(F)F [Example 134, 4-Chloro-N-(((1s*,4s*)-1-cyano-4-(methylsulfonyl)cyclohexyl)methyl)-5-(2-(difluoromethoxy)-4-(3,3,3-trifluoro-2,2-dimethylpropyl)phenyl)-1-ethyl-1H-pyrazole-3-carboxamide]	–
–	112	31	–	11	–	–	CC(C)(O)Cn1nc(C(=O)NC[C@]2(O)CC[C@@H](S(C)(=O)=O)CC2)c(Cl)c1-c1ccc(CC(C)(C)C(F)(F)F)cc1OC(F)F [Example 144, 4-Chloro-5-(2-(difluoromethoxy)-4-(3,3,3-trifluoro-2,2-dimethylpropyl)phenyl)-1-(2-hydroxy-2-methylpropyl)-N-(((1s,4s)-1-hydroxy-4-(methylsulfonyl)cyclohexyl)methyl)-1H-pyrazole-3-carboxamide]	–
